According to patent EP4603105A1, “PHARMACEUTICAL COMPOSITION CONTAINING CYCLIC COMPOUND HAVING SELECTIVE KRAS INHIBITORY EFFECT AGAINST HRAS AND NRAS” (CHUGAI SEIYAKU KABUSHIKI KAISHA, priority 2022, dated 2024):
Where a SMILES comes first, the peptide text is derived from it. Bridges are numbered along the chain shown (N, C = ends). [ ]: non-standard residue; d: D form. The star is where a group is joined. hPhe(3-Cl-4-CF3) = N[C@@H](CCc1ccc(C(F)(F)F)c(Cl)c1)C(=O)O; NPrPhe(4-CF3) = CCCN[C@@H](Cc1ccc(C(F)(F)F)cc1)C(=O)O; NMePhe(4-F) = CN[C@@H](Cc1ccc(F)cc1)C(=O)O; NMeGly(cPent) = CN[C@H](C(=O)O)C1CCCC1; NMeD = CN[C@@H](CC(=O)O)C(=O)O; NMeL = CN[C@@H](CC(C)C)C(=O)O; Morpholide = C1CN(*)CCO1; NMeA = CN[C@@H](C)C(=O)O; Piperidide = C1CCN(*)CC1; Ac5c = NC1(C(=O)O)CCCC1; Aze = O=C(O)[C@@H]1CCN1; Ac4c = NC1(C(=O)O)CCC1; Sar = CNCC(=O)O

Key:
[1] = biological target: GDP-bound NRAS wild-type protein (Homo sapiens, UniProt P01111); assay: Binding to NRAS by surface plasmon resonance (SPR), KD and KD ratio to KRAS
Chain of GDP-bound NRAS wild-type protein (P01111 whole entry): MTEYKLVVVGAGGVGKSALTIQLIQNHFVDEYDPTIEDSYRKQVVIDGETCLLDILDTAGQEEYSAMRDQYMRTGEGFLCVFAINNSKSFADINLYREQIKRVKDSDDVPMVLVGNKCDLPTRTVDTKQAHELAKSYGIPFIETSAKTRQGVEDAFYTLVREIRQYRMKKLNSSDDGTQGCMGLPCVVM
Experimental: (§1) Surface plasmon resonance was used to analyze the binding affinity of compounds for KRAS, NRAS, and HRAS. The apparatus used was Biacore 8K, 8K+, or T200 (GE Healthcare), and the running buffer used was HBS (10 mM HEPES-NaOH, 150 mM NaCl, pH 7.4) containing 1 mM DTT, 10 mM MgCl2, 0.01% Tween 20, 10 µM GDP, and 4% DMSO.
(§2) Biotinylated Avi-tag fusion KRAS, NRAS, and HRAS proteins were expressed in E. coli BL21 (DE3) strains, and after cells were homogenized, they were purified using Streptavidin Mutein Matrix and Superdex 75. After purification, GDP-loaded KRAS, NRAS, and HRAS proteins were immobilized on the surface of Sensor Chip CAP (Cytiva) coated with Biotin CAPture Reagent in an immobilization amount of about 100 to 300 RU. Binding of each compound was evaluated by the Single Cycle Kinetics method, and a running buffer or a compound solution was added to the RAS protein non-immobilized surface and the immobilized surface to obtain a binding response. The flow rate was set to 100 µL/min, and in the compound-adding cycle, compound solutions having different concentrations were intermittently added for 75 seconds each, starting from a low concentration. […] In the blank cycle, a running buffer was intermittently added and not the compound solution. The Biotin CAPture Reagent and RAS proteins were immobilized for each cycle, and at the end of each cycle, the sensor chip was regenerated by the regeneration solution appended to the Biotin CAPture Kit (Cytiva). Measurement was carried out at 30°C.
(§3) The resulting sensorgram was subjected to curve fitting based on a 1:1 binding model on Biacore Insight Evaluation Software or T200 Evaluation Software, and thereby the dissociation constant KD of each compound with respect to KRAS, NRAS, and HRAS was determined. […] Blank indicates a compound from which the KD value with respect to NRAS or HRAS was not obtained.

HRAS wild-type protein = HRAS wild-type protein (Homo sapiens, UniProt P01112); assay: Binding to HRAS by surface plasmon resonance (SPR), KD and KD ratio to KRAS
Chain of HRAS wild-type protein (P01112 whole entry): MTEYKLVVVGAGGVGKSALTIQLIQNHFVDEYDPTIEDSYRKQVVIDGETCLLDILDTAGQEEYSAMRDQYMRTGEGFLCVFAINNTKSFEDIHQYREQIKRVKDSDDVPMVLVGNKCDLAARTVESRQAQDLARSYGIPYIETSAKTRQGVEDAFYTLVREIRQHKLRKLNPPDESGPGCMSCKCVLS
Experimental: as §1, §2, §3

[2] = tested on: human lung cancer strain NCI-H441; type: cell-based
Procedure, shortened: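 Signal came from […] measured per well once the reagent was added. Beforehand, cells were cultured at 37°C and 5% carbon dioxide on a compound series serially diluted in dimethyl sulfoxide.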

[3] = ratio of KD for GDP-bound NRAS wild-type protein to KD for KRAS
[4] = ratio of KD for HRAS wild-type protein to KD for KRAS
[5] = ratio of the KD value with respect to GDP-bound NRAS wild-type protein to the KD value with respect to KRAS
[6] = ratio of the KD value with respect to HRAS wild-type protein to the KD value with respect to KRAS
[7] = ratio of KD value for GDP-bound NRAS wild-type protein to KD value for KRAS (SPR)
[8] = ratio of KD value for HRAS wild-type protein to KD value for KRAS (SPR)

Compound | IC50 [2] | NRAS /KRAS [1, 3] | HRAS /KRAS (HRAS wild-type protein; [4]) | further results
CCCN1C(=O)[C@@H]2CCN2C(=O)[C@H](C)N(C)C(=O)[C@H]([C@@H](C)CC)NC(=O)[C@H](CC(C)C)N(C)C(=O)C[C@@H](C(=O)N2CCOCC2)NC(=O)[C@H](C2CCCC2)N(C)C(=O)C2(CCC2)NC(=O)[C@@H]2CCCN2C(=O)[C@H](CCc2ccc(C(F)(F)F)c(Cl)c2)NC(=O)CN(C)C(=O)[C@@H]1Cc1ccc(C(F)(F)F)cc1 [PP0344] ([NMeL]I[NMeA][Aze][NPrPhe(4-CF3)][Sar][hPhe(3-Cl-4-CF3)]P[Ac4c][NMeGly(cPent)]D-Morpholide; lactam N-11) | 82.9 nM | C (A compound having a KD ratio of 0.1 or more and less than 3 is denoted as C) | B (a compound having 3 or more and less than 10 is denoted as B) | –
CC[C@H](C)[C@@H]1NC(=O)[C@H](CC(C)C)N(C)C(=O)C[C@@H](C(=O)N2CCOCC2)N(C)C(=O)[C@H](C2CCCC2)N(C)C(=O)C2(COC2)NC(=O)[C@@H]2CCCN2C(=O)[C@H](CCc2cc(F)c(C(F)(F)F)c(F)c2)NC(=O)CN(C)C(=O)[C@H](Cc2ccc(C(F)(F)F)cc2)N2CCCC[C@@H](C2=O)N(C)C(=O)CN(C)C1=O [PP0563] | 29 nM | – | – | NRAS /KRAS [1, 5]: B (a compound having 3 or more and less than 10 is denoted as B); HRAS /KRAS (HRAS wild-type protein; [6]): B (a compound having 3 or more and less than 10 is denoted as B)
CCO[C@@H]1C[C@H]2C(=O)NC3(CC(C)(C)C3)C(=O)N(C)[C@@H](C3CCCC3)C(=O)N(C)[C@H](C(=O)N(C)C)CC(=O)N(C)[C@@H](CC(C)C)C(=O)N[C@@H]([C@@H](C)CC)C(=O)N(C)CC(=O)N(C)[C@H]3C/C=C\CCN(C3=O)[C@@H](Cc3ccc(C(F)(F)F)cc3)C(=O)N(C)CC(=O)N[C@@H](CCc3cc(F)c(C(F)(F)F)c(F)c3)C(=O)N2C1 [PP1650] | 1.2 nM | – | – | NRAS /KRAS [1, 7]: A (a compound having 10 or more and less than 20 is denoted as A); HRAS /KRAS (HRAS wild-type protein; [8]): A (a compound having 10 or more and less than 20 is denoted as A)
CCC[C@H]1C(=O)N[C@@H]([C@@H](C)CC)C(=O)N(C)CC(=O)N(C)[C@H]2C/C=C\CCN(C2=O)[C@@H](Cc2ccc(C)cc2)C(=O)N(C)CC(=O)N[C@@H](CCc2cc(Cl)c3c(ccn3C)c2)C(=O)N2C[C@H](OCC)C[C@H]2C(=O)NC2(CC(C)(C)C2)C(=O)N(C)[C@@H](C(CC)CC)C(=O)N(C)[C@H](C(=O)N(C)C)CC(=O)N1C [PP2898] | 98.1 nM | A (a compound having 10 or more and less than 20 is denoted as A) | A (a compound having 10 or more and less than 20 is denoted as A) | –
CCO[C@@H]1C[C@H]2C(=O)NC3(CC(C)(C)C3)C(=O)N(C)[C@@H](C3CCCC3)C(=O)N(C)[C@H](C(=O)N(C)C)CC(=O)N(C)[C@@H](CC3CC3)C(=O)N[C@@H]([C@@H](C)CC)C(=O)N(C)CC(=O)N(C)[C@H]3C/C=C\CCN(C3=O)[C@@H](Cc3ccc(C(F)(F)F)cc3)C(=O)N(C)CC(=O)N[C@@H](CCc3ccc(C(F)(F)F)c(OC)c3)C(=O)N2C1 [PP1563] | 2.6 nM | – | – | NRAS /KRAS [1, 7]: A (a compound having 10 or more and less than 20 is denoted as A); HRAS /KRAS (HRAS wild-type protein; [8]): A (a compound having 10 or more and less than 20 is denoted as A)
CCCN1C(=O)CN(C)C(=O)CN(C)C(=O)[C@H]([C@@H](C)CC)NC(=O)[C@H](CC(C)C)N(C)C(=O)C[C@@H](C(=O)N2CCCCC2)N(C)C(=O)[C@H](C2CCCC2)N(C)C(=O)C2(CCC2)NC(=O)[C@@H]2CCCN2C(=O)[C@H](CCc2ccc(C(F)(F)F)c(Cl)c2)NC(=O)CN(C)C(=O)[C@@H]1Cc1ccc(C(F)(F)F)cc1 [PP1930] ([NMeL]I[Sar][Sar][NPrPhe(4-CF3)][Sar][hPhe(3-Cl-4-CF3)]P[Ac4c][NMeGly(cPent)][NMeD]-Piperidide; lactam N-11) | 7 nM | – | – | NRAS /KRAS [1, 5]: B (a compound having 3 or more and less than 10 is denoted as B); HRAS /KRAS (HRAS wild-type protein; [6]): C (A compound having a KD ratio of 0.1 or more and less than 3 is denoted as C)

Further compounds by falling IC50 [2], results first:

IC50 [2] | Compound | NRAS /KRAS [1, 3] | HRAS /KRAS (HRAS wild-type protein; [4]) | further results
168 nM | CCC[C@H]1C(=O)N[C@@H]([C@@H](C)CC)C(=O)N(C)CC(=O)N(C)[C@H]2C/C=C\CCN(C2=O)[C@@H](Cc2ccc(C(F)(F)F)cc2)C(=O)N(C)CC(=O)N[C@@H](CCc2ccc(C(F)(F)F)c(Cl)c2)C(=O)N2CCCC[C@H]2C(=O)NC2(CC(C)(C)C2)C(=O)N(C)[C@@H](C(CC)CC)C(=O)N(C)[C@H](C(=O)N(C)C)CC(=O)N1C [PP2928] | AA (a compound having 20 or more is denoted as AA) | A (a compound having 10 or more and less than 20 is denoted as A) | –
18.1 nM | CC[C@H](C)[C@@H]1NC(=O)[C@H](CC(C)C)N(C)C(=O)C[C@@H](C(=O)N2CCOCC2)N(C)C(=O)[C@H](C2CCCC2)N(C)C(=O)C2(CCCC2)NC(=O)[C@@H]2CCCN2C(=O)[C@H](CCc2ccc(C(F)(F)F)c(Cl)c2)NC(=O)CN(C)C(=O)[C@H](Cc2ccc(F)cc2)N(C)C(=O)[C@@H]2CCN2C(=O)[C@H](C)N(C)C1=O [PP0217] ([NMeL]I[NMeA][Aze][NMePhe(4-F)][Sar][hPhe(3-Cl-4-CF3)]P[Ac5c][NMeGly(cPent)][NMeD]-Morpholide; lactam N-11) | C (A compound having a KD ratio of 0.1 or more and less than 3 is denoted as C) | C (A compound having a KD ratio of 0.1 or more and less than 3 is denoted as C) | –
13.4 nM | CCO[C@@H]1C[C@H]2C(=O)NC3(CCC3)C(=O)N(C)[C@@H](C3CCCC3)C(=O)N(C)[C@H](C(=O)N(C)C)CC(=O)N(C)[C@@H](Cc3cccs3)C(=O)N[C@@H]([C@@H](C)CC)C(=O)N(C)CC(=O)N(C)[C@H]3C/C=C\CCN(C3=O)[C@@H](Cc3ccc(C(F)(F)F)cc3)C(=O)N(C)CC(=O)N[C@@H](CCc3cc(F)c(C(F)(F)F)c(F)c3)C(=O)N2C1 [PP1123] | A (a compound having 10 or more and less than 20 is denoted as A) | B (a compound having 3 or more and less than 10 is denoted as B) | –
7.9 nM | CCO[C@@H]1C[C@H]2C(=O)NC3(CC(C)(C)C3)C(=O)N(C)[C@@H](C(CC)CC)C(=O)N(C)[C@H](C(=O)N(C)C)CC(=O)N(C)[C@H]3CCC/C=C/c4ccc(cc4)C[C@@H](C(=O)N(C)CC(=O)N[C@@H](CCc4ccc(Cl)c(Cl)c4)C(=O)N2C1)N1CC/C=C\C[C@@H](C1=O)N(C)C(=O)CN(C)C(=O)[C@H]([C@@H](C)CC)NC3=O [PP2580] | AA (a compound having 20 or more is denoted as AA) | A (a compound having 10 or more and less than 20 is denoted as A) | –
4.8 nM | CCC[C@H]1C(=O)N[C@@H]([C@@H](C)CC)C(=O)N(C)CC(=O)N(C)[C@H]2C/C=C\CCN(C2=O)[C@@H](Cc2ccc(C)cc2)C(=O)N(C)CC(=O)N[C@@H](CCc2ccc(C(F)(F)F)c(OC)c2)C(=O)N2C[C@H](OCC)C[C@H]2C(=O)NC2(CC(C)(C)C2)C(=O)N(C)[C@@H](C2CCCC2)C(=O)N(C)[C@H](C(=O)N(C)C)CC(=O)N1C [PP1892] | – | – | NRAS /KRAS [1, 7]: A (a compound having 10 or more and less than 20 is denoted as A); HRAS /KRAS (HRAS wild-type protein; [8]): B (a compound having 3 or more and less than 10 is denoted as B)
2.4 nM | CCC[C@H]1C(=O)N[C@@H]([C@@H](C)CC)C(=O)N(C)CC(=O)N(C)[C@H]2C/C=C\CCN(C2=O)[C@@H](Cc2ccc(C(F)(F)F)cc2)C(=O)N(C)CC(=O)N[C@@H](CCc2cc(F)c(C(F)(F)F)c(F)c2)C(=O)N2C[C@H](OCC)C[C@H]2C(=O)NC2(CCC2)C(=O)N(C)[C@@H](C2CCCC2)C(=O)N(C)[C@H](C(=O)N(C)CCC)CC(=O)N1C [PP1389] | – | – | NRAS /KRAS ([1]; ratio of KD with respect to GDP-bound NRAS wild-type protein to KD with respect to KRAS): AA (a compound having 20 or more is denoted as AA); HRAS /KRAS (HRAS wild-type protein; ratio of KD with respect to HRAS wild-type protein to KD with respect to KRAS): A (a compound having 10 or more and less than 20 is denoted as A)
